Laboratory results reported in patent US8765749B2, “1,6-disubstituted indole compounds as protein kinase inhibitors” (Korea Institute of Science and Technology, priority 2009, dated 2014).

Key:
[1] = system: A375P cells; test: Inhibition activity against proliferation of A375P melanoma cells (MTT assay); settings: Homo sapiens, read-out: Inhibition activity against proliferation of A375P cells (GI50, μM)
[2] = system: SK-MEL28 cells; test: Inhibition activity against proliferation of SK-MEL28 melanoma cells (MTT assay); settings: Homo sapiens, SK-MEL-28, read-out: Inhibition activity against proliferation of SK-MEL28 cells (GI50, μM)

Row | SMILES | GI50 [1] | GI50 [2]
1 | Nc1cc(-n2ccc3ccc(-c4cccc(NC(=O)Nc5ccccc5F)c4)cc32)ncn1 [Example 3, 1-(3-(1-(6-aminopyrimidin-4-yl)-1H-indol-6-yl)phenyl)-3-(2-fluorophenyl)urea] | < 10 µM | –
2 | Nc1cc(-n2ccc3ccc(-c4cccc(NC(=O)NC5CCCCC5)c4)cc32)ncn1 [Example 5, 1-(3-(1-(6-aminopyrimidin-4-yl)-1H-indol-6-yl)phenyl)-3-cyclohexylurea] | < 10 µM | < 10 µM
3 | COc1ccc(-c2ccc(C(=O)Nc3cccc(-c4ccc5ccn(-c6cc(N)ncn6)c5c4)c3)o2)cc1 [Example 10, N-(3-(1-(6-aminopyrimidin-4-yl)-1H-indol-6-yl)phenyl)-5-(4-methoxyphenyl)furan-2-carboxamide] | < 10 µM | –
4 | Nc1cc(-n2ccc3ccc(-c4cccc(NC(=O)c5ccc(Cl)c(C(F)(F)F)c5)c4)cc32)ncn1 [Example 6, N-(3-(1-(6-aminopyrimidin-4-yl)-1H-indol-6-yl)phenyl)-4-chloro-3-(trifluoromethyl)benzamide] | < 10 µM | < 10 µM
5 | Nc1cc(-n2ccc3ccc(-c4cccc(NC(=O)c5cc(-c6ccc(Cl)cc6)on5)c4)cc32)ncn1 [Example 14, N-(3-(1-(6-aminopyrimidin-4-yl)-1H-indol-6-yl)phenyl)-5-(4-chlorophenyl)isoxazol-3-carboxamide] | < 10 µM | –
6 | Nc1cc(-n2ccc3ccc(-c4cccc(NC(=O)c5ccc(-c6cc(C(F)(F)F)ccc6Cl)o5)c4)cc32)ncn1 [Example 11] | < 10 µM | –
7 | Nc1cc(-n2ccc3ccc(-c4cccc(NC(=O)Nc5ccc(C(F)(F)F)c(Cl)c5)c4)cc32)ncn1 [Example 2, 1-(3-(1-(6-aminopyrimidin-4-yl)-1H-indol-6-yl)phenyl)-3-(3-chloro-4-(trifluoromethyl)phenyl)urea] | < 10 µM | < 10 µM
8 | Cc1cc(C(=O)Nc2cccc(-c3ccc4ccn(-c5cc(N)ncn5)c4c3)c2)no1 [Example 13, N-(3-(1-(6-aminopyrimidin-4-yl)-1H-indol-6-yl)phenyl)-5-methylisoxazol-3-carboxamide] | < 10 µM | < 10 µM
9 | Nc1cc(-n2ccc3ccc(-c4cccc(NC(=O)Nc5ccc(Cl)c(Cl)c5)c4)cc32)ncn1 [Example 4, 1-(3-(1-(6-aminopyrimidin-4-yl)-1H-indol-6-yl)phenyl)-3-(3,4-dichlorophenyl)urea] | < 10 µM | –
10 | Nc1cc(-n2ccc3ccc(-c4cccc(NC(=O)c5cnn(-c6ccccc6)c5C(F)(F)F)c4)cc32)ncn1 [Example 17, N-(3-(1-(6-aminopyrimidin-4-yl)-1H-indol-6-yl)phenyl)-1-phenyl-5-(trifluoromethyl)-1H-pyrazol-4-carboxamide] | < 10 µM | –
11 | Nc1cc(-n2ccc3ccc(-c4cccc(NC(=O)c5csc(-c6ccncc6)n5)c4)cc32)ncn1 [Example 16, N-(3-(1-(6-aminopyrimidin-4-yl)-1H-indol-6-yl)phenyl)-2-(pyridin-4-yl)thiazol-4-carboxamide] | < 10 µM | –
12 | Cc1cc(C(=O)Nc2cccc(-c3ccc4ccn(-c5cc(N)ncn5)c4c3)c2)c(C)o1 [Example 12, N-(3-(1-(6-aminopyrimidin-4-yl)-1H-indol-6-yl)phenyl)-2,5-dimethylfuran-3-carboxamide] | < 10 µM | –
13 | Nc1cc(-n2ccc3ccc(-c4cccc(NC(=O)c5cscn5)c4)cc32)ncn1 [Example 15, N-(3-(1-(6-aminopyrimidin-4-yl)-1H-indol-6-yl)phenyl)thiazol-4-carboxamide] | < 10 µM | –
14 | CC(C)(C#N)c1cccc(C(=O)Nc2cccc(-c3ccc4ccn(-c5cc(N)ncn5)c4c3)c2)c1 [Example 9, N-(3-(1-(6-aminopyrimidin-4-yl)-1H-indol-6-yl)phenyl)-3-(2-cyanopropan-2-yl)benzamide] | < 10 µM | < 10 µM
15 | Cc1cn(-c2cc(C(=O)Nc3cccc(-c4ccc5ccn(-c6cc(N)ncn6)c5c4)c3)cc(C(F)(F)F)c2)cn1 [Example 8, N-(3-(1-(6-aminopyrimidin-4-yl)-1H-indol-6-yl)phenyl)-3-(4-methyl-1H-imidazol-1-yl)-5-(trifluoromethyl)benzamide] | < 10 µM | < 10 µM
16 | Nc1cc(-n2ccc3ccc(-c4cccc(NC(=O)c5cc(N6CCOCC6)cc(C(F)(F)F)c5)c4)cc32)ncn1 [Example 7, N-(3-(1-(6-aminopyrimidin-4-yl)-1H-indol-6-yl)phenyl)-3-morpholino-5-(trifluoromethyl)benzamide] | < 10 µM | < 10 µM

Second part, the molecule after the results:

Row | GI50 [1] | GI50 [2] | SMILES
17 | < 10 µM | – | O=C(Nc1cccc(-c2ccc3ccn(-c4cc(NC(=O)C5CC5)ncn4)c3c2)c1)Nc1ccccc1F [Example 27, N-(6-(6-(3-(3-(2-fluorophenyl)ureido)phenyl)-1H-indol-1-yl)pyrimidin-4-yl)cyclopropanecarboxamide]
18 | < 10 µM | – | Cc1cn(-c2cc(C(=O)Nc3cccc(-c4ccc5ccn(-c6cc(NC(=O)C7CC7)ncn6)c5c4)c3)cc(C(F)(F)F)c2)cn1 [Example 32, N-(3-(1-(6-(cyclopropanecarboxamido)pyrimidin-4-yl)-1H-indol-6-yl)phenyl)-3-(4-methyl-1H-imidazol-1-yl)-5-(trifluoromethyl)benzamide]
19 | < 10 µM | – | O=C(Nc1cccc(-c2ccc3ccn(-c4cc(NC(=O)C5CC5)ncn4)c3c2)c1)c1ccc(Cl)c(C(F)(F)F)c1 [Example 30, 4-chloro-N-(3-(1-(6-(cyclopropanecarboxamido)pyrimidin-4-yl)-1H-indol-6-yl)phenyl)-3-(trifluoromethyl)benzamide]
20 | < 10 µM | – | Nc1cc(-n2ccc3ccc(-c4cccc(NC(=O)c5ccc(Br)s5)c4)cc32)ncn1 [Example 18, N-(3-(1-(6-aminopyrimidin-4-yl)-1H-indol-6-yl)phenyl)-5-bromothiophen-2-carboxamide]
21 | < 10 µM | – | CN1CCC(Oc2ccc(C(=O)Nc3cccc(-c4ccc5ccn(-c6cc(N)ncn6)c5c4)c3)cc2C(F)(F)F)CC1 [Example 19, N-(3-(1-(6-aminopyrimidin-4-yl)-1H-indol-6-yl)phenyl)-4-(1-methylpiperidin-4-yloxy)-3-(trifluoromethyl)benzamide]
22 | < 10 µM | < 10 µM | COc1ccccc1NC(=O)Nc1cccc(-c2ccc3ccn(-c4cc(NC5CC5)ncn4)c3c2)c1 [Example 23, 1-(3-(1-(6-(cyclopropylamino)pyrimidin-4-yl)-1H-indol-6-yl)phenyl)-3-(2-methoxyphenyl)urea]
23 | < 10 µM | < 10 µM | COc1ccccc1NC(=O)Nc1cccc(-c2ccc3ccn(-c4ccnc(N)n4)c3c2)c1 [Example 25, 1-(3-(1-(2-aminopyrimidin-4-yl)-1H-indol-6-yl)phenyl)-3-(2-methoxyphenyl)urea]
24 | < 10 µM | – | O=C(Nc1cccc(-c2ccc3ccn(-c4cc(NC(=O)C5CC5)ncn4)c3c2)c1)NC1CCCCC1 [Example 29, N-(6-(6-(3-(3-cyclohexylureido)phenyl)-1H-indol-1-yl)pyrimidin-4-yl)cyclopropanecarboxamide]
25 | < 10 µM | < 10 µM | COc1ccccc1NC(=O)Nc1cccc(-c2ccc3ccn(-c4ncnc5[nH]ccc45)c3c2)c1 [Example 36, 1-(3-(1-(7H-pyrrolo[2,3-d]pyrimidin-4-yl)-1H-indol-6-yl)phenyl)-3-(2-methoxyphenyl)urea]
26 | < 10 µM | – | COc1ccccc1NC(=O)Nc1ccc(C)c(-c2ccc3ccn(-c4cc(NC(=O)C5CC5)ncn4)c3c2)c1 [Example 35, N-(6-(6-(5-(3-(2-methoxyphenyl)ureido)-2-methylphenyl)-1H-indol-1-yl)pyrimidin-4-yl)cyclopropanecarboxamide]
27 | < 10 µM | – | O=C(Nc1cccc(-c2ccc3ccn(-c4ncnc5[nH]ccc45)c3c2)c1)c1ccc(Cl)c(C(F)(F)F)c1 [Example 37, N-(3-(1-(7H-pyrrolo[2,3-d]pyrimidin-4-yl)-1H-indol-6-yl)phenyl)-4-chloro-3-(trifluoromethyl)benzamide]
28 | < 10 µM | – | O=C(Nc1cccc(-c2ccc3ccn(-c4cc(NC(=O)C5CC5)ncn4)c3c2)c1)c1cc(N2CCOCC2)cc(C(F)(F)F)c1 [Example 31, N-(3-(1-(6-(cyclopropanecarboxamido)pyrimidin-4-yl)-1H-indol-6-yl)phenyl)-3-morpholino-5-(trifluoromethyl)benzamide]
29 | < 10 µM | – | CC(C)(C#N)c1cccc(C(=O)Nc2cccc(-c3ccc4ccn(-c5cc(NC(=O)C6CC6)ncn5)c4c3)c2)c1 [Example 33, 3-(2-cyanopropan-2-yl)-N-(3-(1-(6-(cyclopropanecarboxamido)pyrimidin-4-yl)-1H-indol-6-yl)phenyl)benzamide]
30 | < 10 µM | – | Cc1ccc(S(=O)(=O)Nc2cccc(-c3ccc4ccn(-c5cc(N)ncn5)c4c3)c2)cc1 [Example 20, N-(3-(1-(6-aminopyrimidin-4-yl)-1H-indol-6-yl)phenyl)-4-methylbenzenesulfonamide]
31 | < 10 µM | – | O=C(Nc1cccc(-c2ccc3ccn(-c4cc(NC(=O)C5CC5)ncn4)c3c2)c1)Nc1ccc(Cl)c(Cl)c1 [Example 28, N-(6-(6-(3-(3-(3,4-dichlorophenyl)ureido)phenyl)-1H-indol-1-yl)pyrimidin-4-yl)cyclopropanecarboxamide]
32 | < 10 µM | < 10 µM | COc1ccccc1NC(=O)Nc1cccc(-c2ccc3ccn(-c4cc(NCCN5CCOCC5)ncn4)c3c2)c1 [Example 24, 1-(2-methoxyphenyl)-3-(3-(1-(6-(2-morpholinoethylamino)pyrimidin-4-yl)-1H-indol-6-yl)phenyl)urea]
